Data on 4 compounds can be found in patent US20100260675A1, “Oxytocin Receptor Antagonists and Their Use for the Treatment of Pulmonary Related Diseases” (priority 2004, published 2010).

In assay [1] the target is T1, Oxytocin Receptor on human airway smooth muscle cells (HASMC) (Homo sapiens, UniProt P30559).
T1 construct: the Oxytocin Receptor expressed on the surface of human airway smooth muscle cells is functional; endogenous in cells; host or cells: primary human airway smooth muscle cells (HASMC)
T1 sequence (P30559 1-389): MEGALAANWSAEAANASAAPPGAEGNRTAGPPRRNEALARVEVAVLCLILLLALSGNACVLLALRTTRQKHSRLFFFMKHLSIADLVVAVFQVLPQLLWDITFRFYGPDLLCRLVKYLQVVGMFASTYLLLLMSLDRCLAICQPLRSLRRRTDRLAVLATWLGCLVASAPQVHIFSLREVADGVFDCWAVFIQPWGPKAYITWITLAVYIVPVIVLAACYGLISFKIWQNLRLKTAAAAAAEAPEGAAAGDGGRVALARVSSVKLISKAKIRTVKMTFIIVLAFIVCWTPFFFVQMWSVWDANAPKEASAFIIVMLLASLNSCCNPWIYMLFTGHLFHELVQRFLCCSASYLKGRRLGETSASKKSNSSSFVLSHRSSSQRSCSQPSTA
Briefly: Calcium influx in human airway smooth muscle cells after addition of oxytocin. The following applies: FIG. 4. The format is cell-based. On the procedure: In order to determine whether the Oxytocin Receptor expressed on the surface of human airway smooth muscle cells is functional, the amount of influx of calcium was measured. HASMC were serum starved and then either unstimulated or stimulated with IL-13 (50 ng/ml) for 24 hours. The amount of calcium that mobilized Into the cells was measured after addition of oxytocin (100 nM or 500 nM).

Assay [2] concerns Oxytocin Receptor (OXTR) mRNA in primary human airway smooth muscle cells. Nature of the assay: Real Time PCR analysis of oxytocin receptor mRNA in cytokine-stimulated primary human airway smooth muscle cells. The format is cell-based. The following applies: for level of OXTR mRNA normalized to 18S mRNA and relative to untreated control (0 hour timepoint): primary HASMC from normal donors, 50 ng/ml; for induced expression of the Oxytocin Receptor normalized to 18S and relative to untreated control (0 hour timepoint): primary HASMC from two normal donors, 10 ng/ml. On the procedure:
In order to confirm the microarray finding by an independent means, Real Time PCR technology was employed. Primary human airway smooth muscle cells from “normal” donors were cultured with IL-13 or a naturally occurring mutant form IL-13R130Q (associated with high serum IgE levels) for 0, 6 hours or 18 hours at 50 ng/ml after allowing the cell to rest for 24 hours. Total RNA was isolated, reverse transcribed and used in Real Time PCR analysis for oxytocin receptor using the Applied Biosystems Gene Expression Assay (ID number Hs00168573_m1) on the ABI PRISM® 7900HT Sequence Detection System. At 6 hours, the level of OXTR mRNA normalized to 18S mRNA and relative to untreated control (i.e., 0 hour time point) was 1.95 (Std Dev. 0.41) when cells were stimulated with WT IL-13 and 1.79 (Std Dev. 0.22) when stimulated with R130Q. At 18 hours, the level of OXTR mRNA normalized to 18S mRNA and relative to untreated control (i.e., 0 hour timepoint) was 2.02 (Std Dev. 0.42) when the cells were stimulated with WT IL-13 and 3.58 (Std Dev. 0.74) when stimulated with R130Q.
Primary human airway smooth muscle cells from two “normal” donors were cultured with tumor necrosis factor alpha (TNFα) for 0, 6 hours or 18 hours at 10 ng/ml after resting the cells for 24 hours. Total RNA was isolated, reverse transcribed and used in Real Time PCR analysis for the Oxytocin Receptor. TNFα induced the expression of the Oxytocin Receptor by 4.88 (Std Dev. 1.13) at 6 hours and 7.06 (Std. Dev. 1.42) at the 18-hour time point normalized to 18S and relative to untreated control (i.e., 0 hour timepoint).
(In general: Quantitative PCR measures a nucleic acid by following its amplification.)

In assay [3] the test system is Oxytocin Receptor mRNA in trachea. Briefly: Oxytocin Receptor RNA expression in trachea, in vivo model of acute asthma (Real Time PCR). Conditions: mice immunized i.p. day 1 and 8, challenged intranasally days 22-24, trachea day 25. On the procedure: The RNA expression of Oxytocin Receptor in an in vivo model of acute asthma was tested. The mice were immunized with ovalbumin intraperitoneal on day 1 and day 8 and then challenged intranasally on days 22, 23 and 24. On day 25, the mice were euthanized. The trachea were extracted for RNA isolation and used in Real Time PCR analysis for Oxytocin Receptor.

On to `CC[C@H](C)[C@@H]1NC(=O)[C@H](Cc2ccc(O)cc2)NC(=O)[C@@H](N)CSSC[C@@H](C(=O)N2CCC[C@H]2C(=O)N[C@@H](CC(C)C)C(=O)NCC(N)=O)NC(=O)[C@H](CC(N)=O)NC(=O)[C@H](CCC(N)=O)NC1=O` [oxytocin], for which the “Ca influx in human airway smooth muscle cells” value in assay [1] (serum-starved HASMC, oxytocin 100 nM or 500 nM) is on record as “induces Ca influx”.

Regarding “IL-13: wild-type interleukin 13, Th2 derived cytokine used to stimulate airway smooth muscle cells”, the “level of OXTR mRNA normalized to 18S mRNA and relative to untreated control (0 hour timepoint)” value is reported as 1.95 (Std Dev. 0.41) in assay [2] (6 hours) and 2.02 (Std Dev. 0.42) in assay [2] (18 hours). In addition, the “effect on oxytocin-induced calcium influx in HASMC” value in assay [1] (IL-13 50 ng/ml for 24 hours, at low concentrations of oxytocin) is recorded as “further enhances calcium influx”.

Take TNFα: the “induced expression of the Oxytocin Receptor normalized to 18S and relative to untreated control (0 hour timepoint)” value in assay [2] (18-hour time point) was 7.06 (Std. Dev. 1.42); in assay [2] (6 hours), 4.88 (Std Dev. 1.13).

“ovalbumin: allergen used to immunize and challenge mice in the acute asthma model”: the “Oxytocin Receptor mRNA in trachea compared to PBS control” value in assay [3] was found to be 1.5 fold.
